{"source": "paper PMC7280082", "about": "(Acta Pharmaceutica Sinica. B, 2019)", "key": {"[1]": {"system": "HIV-1 Y188L mutant strain", "assay": "microbe, parasite or virus in culture", "format": "cell-based"}, "[2]": {"system": "Kunming mice", "assay": "Acute toxicity experiment in Kunming mice", "format": "in vivo", "conditions": "single oral dose of 2000 mg/kg"}, "[3]": {"system": "HIV-1 F227L + V106A double-mutant strain", "assay": "microbe, parasite or virus in culture", "format": "cell-based"}, "[4]": {"system": "HIV-1 Y181C mutant strain", "assay": "microbe, parasite or virus in culture", "format": "cell-based"}, "[5]": {"system": "HIV-1 E138K mutant strain", "assay": "microbe, parasite or virus in culture", "format": "cell-based"}, "[6]": {"assay": "Cytotoxicity in mock-infected MT-4 cell cultures, MTT method", "conditions": "human, mock-infected MT-4 cells"}, "[7]": {"system": "HIV-1 L100I mutant strain", "assay": "microbe, parasite or virus in culture", "format": "cell-based"}, "[8]": {"system": "HIV-1 K103N mutant strain", "assay": "microbe, parasite or virus in culture", "format": "cell-based"}, "[9]": {"system": "HIV-2 strain (ROD)", "assay": "Anti-HIV-2", "format": "cell-based"}, "[10]": {"system": "HIV-1 RES056 (K103N + Y181C) double-mutant strain", "assay": "microbe, parasite or virus in culture", "format": "cell-based"}, "[11]": {"assay": "In vivo pharmacokinetics in Wistar rat", "conditions": "plasma"}, "[12]": {"system": "WT HIV-1 (IIIB)", "assay": "microbe, parasite or virus in culture", "format": "cell-based"}, "[13]": {"target": "WT HIV-1 RT (Human immunodeficiency virus type 1 group M subtype B, UniProt P03366)", "assay": "Recombinant HIV-1 RT inhibitory assay", "format": "biochemical"}, "[14]": {"conditions": "ratio of EC50 (resistant viral strain)/EC50 (wild-type viral strain)"}}}
{"smiles": "Cc1cc(-c2ccc(C#N)cc2)cc(C)c1Oc1nc(NC2CCN(Cc3ccc(C(N)=O)cc3)CC2)nc2ccsc12", "note": "[Compound 26, 4-((4-((4-((4′-Cyano-3,5-dimethyl-[1,1′-biphenyl]-4-yl)oxy)thieno[3,2-d]pyrimidin-2-yl)amino)piperidin-1-yl)methyl)benzamide]", "values": [{"measurement": "SI Y188L", "setting": "[1]; CC50/EC50", "result": 229}, {"measurement": "EC50", "setting": "[1]; Human immunodeficiency virus 1, MT4, read-out: EC50 Y188L", "result": "0.0239 ± 0.0024", "unit": "µM"}, {"measurement": "RF Y188L", "setting": "[1]; [14]", "result": 2.4}, {"measurement": "mortality or poisoning symptom", "setting": "[2]", "result": "no mortality or poisoning symptom"}, {"measurement": "SI F227L + V106A", "setting": "[3]; CC50/EC50", "result": 56}, {"measurement": "EC50", "setting": "[3]; Human immunodeficiency virus 1, MT4, read-out: EC50 F227L + V106A", "result": "0.0972 ± 0.0253", "unit": "µM"}, {"measurement": "RF F227L + V106A", "setting": "[3]; [14]", "result": 9.8}, {"measurement": "SI Y181C", "setting": "[4]; CC50/EC50", "result": 290}, {"measurement": "EC50", "setting": "[4]; Human immunodeficiency virus 1, MT4, read-out: EC50 Y181C", "result": "0.0189 ± 0.00228", "unit": "µM"}, {"measurement": "RF Y181C", "setting": "[4]; [14]", "result": 1.9}, {"measurement": "SI E138K", "setting": "[5]; CC50/EC50", "result": 236}, {"measurement": "EC50", "setting": "[5]; Human immunodeficiency virus 1, MT4, read-out: EC50 E138K", "result": "0.0232 ± 0.00864", "unit": "µM"}, {"measurement": "RF E138K", "setting": "[5]; [14]", "result": 2.3}, {"measurement": "CC50 at 5 days", "setting": "[6]", "result": "5.48 ± 2.12", "unit": "µM"}, {"measurement": "SI L100I", "setting": "[7]; CC50/EC50", "result": 521}, {"measurement": "EC50", "setting": "[7]; Human immunodeficiency virus 1, MT4, read-out: EC50 L100I", "result": "0.0105 ± 0.00456", "unit": "µM"}, {"measurement": "RF L100I", "setting": "[7]; [14]", "result": 1.1}, {"measurement": "SI K103N", "setting": "[8]; CC50/EC50", "result": 910}, {"measurement": "EC50", "setting": "[8]; Human immunodeficiency virus 1, MT4, read-out: EC50 K103N", "result": "0.00602 ± 0.00084", "unit": "µM"}, {"measurement": "EC50", "setting": "[9]; Human immunodeficiency virus 2, MT4, read-out: EC50 ROD", "result": "> 5.49", "unit": "µM"}, {"measurement": "SI ROD", "setting": "[9]; ratio of CC50/EC50", "result": "<1"}, {"measurement": "SI RES056", "setting": "[10]; CC50/EC50", "result": 44}, {"measurement": "EC50", "setting": "[10]; Human immunodeficiency virus 1, MT4, read-out: EC50 RES056", "result": "0.125 ± 0.0393", "unit": "µM"}, {"measurement": "RF RES056", "setting": "[10]; [14]", "result": 12.6}, {"measurement": "AUC(0-inf)", "setting": "[11]; iv, 2 mg/kg", "result": "1340 ± 53.9", "unit": "ng·h/mL"}, {"measurement": "AUC(0-t)", "setting": "[11]; iv, 2 mg/kg", "result": "1290 ± 62.7", "unit": "ng·h/mL"}, {"measurement": "Cmax", "setting": "[11]; iv, 2 mg/kg", "result": "941 ± 181", "unit": "ng/mL"}, {"measurement": "clearance", "setting": "[11]; iv, 2 mg/kg", "result": "25 ± 1.04", "unit": "mL/min/kg"}, {"measurement": "half-life", "setting": "[11]; iv, 2 mg/kg", "result": "1.71 ± 0.24", "unit": "h"}, {"measurement": "bioavailability", "setting": "[11]; oral, 20 mg/kg", "result": 33.8, "unit": "%"}, {"measurement": "AUC(0-inf)", "setting": "[11]; po, 20 mg/kg", "result": "4760 ± 1350", "unit": "ng·h/mL"}, {"measurement": "AUC(0-t)", "setting": "[11]; po, 20 mg/kg", "result": "4360 ± 1570", "unit": "ng·h/mL"}, {"measurement": "Cmax", "setting": "[11]; po, 20 mg/kg", "result": "762 ± 296", "unit": "ng/mL"}, {"measurement": "Tmax", "setting": "[11]; po, 20 mg/kg", "result": "2 ± 0.32", "unit": "h"}, {"measurement": "half-life", "setting": "[11]; po, 20 mg/kg", "result": "2.68 ± 0.2", "unit": "h"}, {"measurement": "EC50", "setting": "[12]; Human immunodeficiency virus 1, IIIB, MT4, read-out: EC50 IIIB", "result": "0.00993 ± 0.00127", "unit": "µM"}, {"measurement": "SI IIIB", "setting": "[12]; ratio of CC50/EC50", "result": 552}, {"measurement": "IC50", "setting": "[13]", "result": "0.182 ± 0.016", "unit": "µM"}]}
